For experiment [1], the target named is Human α2δ-1 subunit of Cav2.2 calcium channel (Homo sapiens, UniProt P54289). The experiment in a line: biochemical. The format is binding.
For a further experiment, the target named is Human μ-opioid receptor (Homo sapiens, UniProt P35372). The experiment in a line: biochemical. The format is binding.
[2] abbreviates: binding to α2δ-1 subunit of voltage-gated calcium channels expressed as Ki, + also Ki>5000 nM or inhibition between 1% and 50%, read-out: α2δ-1 binding.

Like-named read-outs stand apart in the source and are kept apart here.

Among the data in patent US20220002314A1 (priority 2018, published 2022) are Ki values, retold here.

Human α2δ-1 subunit of Cav2.2 calcium channel, sequence (P54289 25-1103): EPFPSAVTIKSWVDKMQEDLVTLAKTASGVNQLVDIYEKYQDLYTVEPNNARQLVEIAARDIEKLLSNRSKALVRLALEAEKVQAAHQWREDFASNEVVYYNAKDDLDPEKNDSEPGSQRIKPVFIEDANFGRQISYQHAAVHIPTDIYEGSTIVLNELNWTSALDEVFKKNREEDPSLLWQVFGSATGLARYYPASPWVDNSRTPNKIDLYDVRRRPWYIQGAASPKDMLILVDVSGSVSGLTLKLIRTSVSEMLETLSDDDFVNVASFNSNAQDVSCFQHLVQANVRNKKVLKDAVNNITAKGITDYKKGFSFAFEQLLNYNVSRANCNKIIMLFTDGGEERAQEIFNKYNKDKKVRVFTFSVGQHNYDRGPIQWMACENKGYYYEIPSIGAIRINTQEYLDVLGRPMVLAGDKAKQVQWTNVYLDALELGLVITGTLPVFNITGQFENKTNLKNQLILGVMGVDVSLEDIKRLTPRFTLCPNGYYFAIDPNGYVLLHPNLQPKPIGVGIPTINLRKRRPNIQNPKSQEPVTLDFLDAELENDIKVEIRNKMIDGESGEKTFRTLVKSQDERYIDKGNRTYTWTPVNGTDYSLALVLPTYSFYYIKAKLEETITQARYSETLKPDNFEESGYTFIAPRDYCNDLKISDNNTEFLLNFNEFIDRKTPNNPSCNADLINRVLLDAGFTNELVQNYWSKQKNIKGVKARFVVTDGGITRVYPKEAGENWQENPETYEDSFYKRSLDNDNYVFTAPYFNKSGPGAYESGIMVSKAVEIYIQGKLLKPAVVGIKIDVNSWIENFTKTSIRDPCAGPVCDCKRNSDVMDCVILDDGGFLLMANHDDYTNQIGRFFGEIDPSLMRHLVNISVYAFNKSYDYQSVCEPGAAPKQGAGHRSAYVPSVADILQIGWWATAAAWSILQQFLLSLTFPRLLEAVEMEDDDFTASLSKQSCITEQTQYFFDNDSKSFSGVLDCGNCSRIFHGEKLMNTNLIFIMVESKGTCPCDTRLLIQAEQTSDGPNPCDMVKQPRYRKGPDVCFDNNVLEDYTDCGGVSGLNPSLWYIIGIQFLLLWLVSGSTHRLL
Human μ-opioid receptor, sequence (P35372 whole entry): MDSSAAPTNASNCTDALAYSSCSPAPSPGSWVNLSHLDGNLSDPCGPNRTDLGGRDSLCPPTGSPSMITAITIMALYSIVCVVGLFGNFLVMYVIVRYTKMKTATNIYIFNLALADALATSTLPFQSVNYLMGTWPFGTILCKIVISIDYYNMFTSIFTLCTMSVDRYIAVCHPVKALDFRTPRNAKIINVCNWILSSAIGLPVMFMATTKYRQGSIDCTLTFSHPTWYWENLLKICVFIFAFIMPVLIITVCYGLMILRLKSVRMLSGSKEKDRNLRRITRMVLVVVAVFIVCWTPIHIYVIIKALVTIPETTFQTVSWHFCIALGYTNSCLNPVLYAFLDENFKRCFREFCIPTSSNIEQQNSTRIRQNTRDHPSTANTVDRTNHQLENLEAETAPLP

As for `CCC[C@H](c1nc2ccc(N3C[C@H](C)OC4(CCN(CCc5ccccc5)CC4)C3)cc2c(=O)n1CC)N1C[C@@H](C)N[C@@H](C)C1` [Example 156, 2-((R)-1-((3S,5R)-3,5-dimethylpiperazin-1-yl)butyl)-3-ethyl-6-((S)-2-methyl-9-phenethyl-1-oxa-4,9-diazaspiro[5.5]undecan-4-yl)quinazolin-4(3H)-one], the Ki is 500 to 5000 nM in experiment [1] (setting [2]) and greater than 500 nM at Human μ-opioid receptor.
For `CCC[C@H](c1nc2ccc(N3C[C@@H](C)OC4(CCN(CCc5ccccc5)CC4)C3)cc2c(=O)n1CC)N1C[C@@H](C)N[C@@H](C)C1` [Example 157, 2-((R)-1-((3S,5R)-3,5-dimethylpiperazin-1-yl)butyl)-3-ethyl-6-((R)-2-methyl-9-phenethyl-1-oxa-4,9-diazaspiro[5.5]undecan-4-yl)quinazolin-4(3H)-one], the Ki in experiment [1] (setting [2]) is 500 to 5000 nM; on Human μ-opioid receptor, greater than 500 nM.
`CCC[C@@H](c1nc2ccc(NCC[C@@]3(c4ccccn4)CCOC4(CCCC4)C3)cc2c(=O)n1CC)N1C[C@@H](C)N[C@@H](C)C1` [Example 158, 2-((S)-1-((3S,5R)-3,5-Dimethylpiperazin-1-yl)butyl)-3-ethyl-6-((2-((R)-9-(pyridin-2-yl)-6-oxaspiro[4.5]decan-9-yl)ethyl)amino)quinazolin-4(3H)-one]: the Ki in experiment [1] was less than 500 nM; on Human μ-opioid receptor, greater than 500 nM.
The like results for `CCC[C@H](c1nc2ccc(NCC[C@]3(c4ccccn4)CCOC4(CCCC4)C3)cc2c(=O)n1CC)N1C[C@@H](C)N[C@@H](C)C1` [Example 159, 2-((R)-1-((3S,5R)-3,5-dimethylpiperazin-1-yl)butyl)-3-ethyl-6-((2-((S)-9-(pyridin-2-yl)-6-oxaspiro[4.5]decan-9-yl)ethyl)amino)quinazolin-4(3H)-one] were, in that order, 500 to 5000 nM and greater than 500 nM.
In the case of `CCC[C@H](c1nc2ccc(NCC[C@@]3(c4ccccn4)CCOC4(CCCC4)C3)cc2c(=O)n1CC)N1C[C@@H](C)N[C@@H](C)C1` [Example 160, 2-((R)-1-((3S,5R)-3,5-dimethylpiperazin-1-yl)butyl)-3-ethyl-6-((2-((R)-9-(pyridin-2-yl)-6-oxaspiro[4.5]decan-9-yl)ethyl)amino)quinazolin-4(3H)-one], the Ki in experiment [1] was less than 500 nM; at Human μ-opioid receptor it was greater than 500 nM.
As for `CCC[C@@H](c1nc2ccc(NCC[C@]3(c4ccccn4)CCOC4(CCCC4)C3)cc2c(=O)n1CC)N1C[C@@H](C)N[C@@H](C)C1` [Example 161, 2-((S)-1-((3S,5R)-3,5-dimethylpiperazin-1-yl)butyl)-3-ethyl-6-((2-((S)-9-(pyridin-2-yl)-6-oxaspiro[4.5]decan-9-yl)ethyl)amino)quinazolin-4(3H)-one], the Ki in experiment [1] was greater than 5000 nM; on Human μ-opioid receptor it was greater than 500 nM.
On to `CCCC(c1nc2c(Br)c(N(Cc3cccc(OC)c3)C(=O)OC(C)(C)C)ccc2c(=O)n1CC)N1C[C@@H](C)N[C@@H](C)C1` (stereo partly drawn) [Example 162, tert-Butyl (8-bromo-2-(1-((3S,5R)-3,5-dimethylpiperazin-1-yl)butyl)-3-ethyl-4-oxo-3,4-dihydroquinazolin-7-yl)(3-methoxybenzyl)carbamate], for which the Ki is 500 to 5000 nM in experiment [1] (read-out: α2δ-1 binding) and greater than 500 nM at Human μ-opioid receptor (read-out: μ-binding).
Take `CCC[C@@H](c1nc2cc(O[C@H](CCNC)c3ccccc3)ccc2c(=O)n1C)N1C[C@@H](C)N[C@@H](C)C1` [Example 164, 2-((S)-1-((3S,5R)-3,5-Dimethylpiperazin-1-yl)butyl)-3-methyl-7-((R)-3-(methylamino)-1-phenylpropoxy)quinazolin-4(3H)-one]: the Ki in experiment [1] was 500 to 5000 nM; at Human μ-opioid receptor, greater than 500 nM.
For the compound `CCC[C@H](c1nc2cc(O[C@H](CCNC)c3ccccc3)ccc2c(=O)n1C)N1C[C@@H](C)N[C@@H](C)C1` [Example 165, 2-((R)-1-((3S,5R)-3,5-dimethylpiperazin-1-yl)butyl)-3-methyl-7-((R)-3-(methylamino)-1-phenylpropoxy)quinazolin-4(3H)-one], the results for the Ki (in experiment [1]; on Human μ-opioid receptor) were 500 to 5000 nM and greater than 500 nM, respectively.
`CCC[C@@H](c1nc2cc(O[C@@H](CCNC)c3ccccc3)ccc2c(=O)n1C)N1C[C@@H](C)N[C@@H](C)C1` [Example 166, 2-((S)-1-((3S,5R)-3,5-dimethylpiperazin-1-yl)butyl)-3-methyl-7-((S)-3-(methylamino)-1-phenylpropoxy)quinazolin-4(3H)-one]: the Ki was less than 500 nM in experiment [1] and greater than 500 nM on Human μ-opioid receptor.
As to `CCC[C@H](c1nc2cc(O[C@@H](CCNC)c3ccccc3)ccc2c(=O)n1C)N1C[C@@H](C)N[C@@H](C)C1` [Example 167, 2-((R)-1-((3S,5R)-3,5-dimethylpiperazin-1-yl)butyl)-3-methyl-7-((S)-3-(methylamino)-1-phenylpropoxy)quinazolin-4(3H)-one], the Ki in experiment [1] is less than 500 nM; at Human μ-opioid receptor it was greater than 500 nM.
The like results for `CCC[C@@H](c1nc2cc(O[C@H](CNC)c3ccccc3)ccc2c(=O)n1C)N1C[C@@H](C)N[C@@H](C)C1` [Example 168, 2-((S)-1-((3S,5R)-3,5-dimethylpiperazin-1-yl)butyl)-3-methyl-7-((S)-2-(methylamino)-1-phenylethoxy)quinazolin-4(3H)-one] were, in that order, 500 to 5000 nM and greater than 500 nM.
For `CCC[C@H](c1nc2cc(O[C@@H](CNC)c3ccccc3)ccc2c(=O)n1C)N1C[C@@H](C)N[C@@H](C)C1` [Example 169, 2-((R)-1-((3S,5R)-3,5-dimethylpiperazin-1-yl)butyl)-3-methyl-7-((R)-2-(methylamino)-1-phenylethoxy)quinazolin-4(3H)-one], in that order: 500 to 5000 nM and greater than 500 nM.
As to `CCC[C@H](c1nc2cc(O[C@H](CNC)c3ccccc3)ccc2c(=O)n1C)N1C[C@@H](C)N[C@@H](C)C1` [Example 170, 2-((R)-1-((3S,5R)-3,5-dimethylpiperazin-1-yl)butyl)-3-methyl-7-((S)-2-(methylamino)-1-phenylethoxy)quinazolin-4(3H)-one], the Ki in experiment [1] is less than 500 nM; on Human μ-opioid receptor, greater than 500 nM.
For `CCC[C@@H](c1nc2cc(O[C@@H](CNC)c3ccccc3)ccc2c(=O)n1C)N1C[C@@H](C)N[C@@H](C)C1` [Example 171, 2-((S)-1-((3S,5R)-3,5-dimethylpiperazin-1-yl)butyl)-3-methyl-7-((R)-2-(methylamino)-1-phenylethoxy)quinazolin-4(3H)-one], in that order: 500 to 5000 nM and greater than 500 nM.
Turning to `CCCC(c1nc2cc(CO)ccc2c(=O)n1C)N1C[C@@H](C)N[C@@H](C)C1` (stereo partly drawn) [Example 172, 2-(1-((3S,5R)-3,5-Dimethylpiperazin-1-yl)butyl)-7-(hydroxymethyl)-3-methylquinazolin-4(3H)-one], the Ki is less than 500 nM in experiment [1] and greater than 500 nM on Human μ-opioid receptor.
Regarding `CCCC(c1nc2ccc(CCO)cc2c(=O)n1CC)N1C[C@@H](C)N[C@@H](C)C1` (stereo partly drawn) [Example 173, 2-(1-((3S,5R)-3,5-Dimethylpiperazin-1-yl)butyl)-3-ethyl-6-(2-hydroxyethyl)quinazolin-4(3H)-one], the results for the Ki (in experiment [1]; at Human μ-opioid receptor) were less than 500 nM and greater than 500 nM, respectively.
With `CCCC(c1nc2ccc(CCN(C)Cc3ccccc3)cc2c(=O)n1CC)N1C[C@@H](C)N[C@@H](C)C1` (stereo partly drawn) [Example 174, 6-(2-(Benzyl(methyl)amino)ethyl)-2-(1-((3S,5R)-3,5-dimethylpiperazin-1-yl)butyl)-3-ethylquinazolin-4(3H)-one], the Ki in experiment [1] is less than 500 nM; on Human μ-opioid receptor it was greater than 500 nM.
Consider `CCCC(c1nc2ccc(CCN(C)CCC(C)C)cc2c(=O)n1CC)N1C[C@@H](C)N[C@@H](C)C1` (stereo partly drawn) [Example 175, 2-(1-((3S,5R)-3,5-dimethylpiperazin-1-yl)butyl)-3-ethyl-6-(2-(isopentyl(methyl)amino)ethyl)quinazolin-4(3H)-one], for which the Ki in experiment [1] was less than 500 nM; on Human μ-opioid receptor, greater than 500 nM.
On to `CCCC(c1nc2cc(C#N)ccc2c(=O)n1C)N1C[C@@H](C)N[C@@H](C)C1` (stereo partly drawn) [Example 176, 2-(1-((3S,5R)-3,5-Dimethylpiperazin-1-yl)butyl)-3-methyl-4-oxo-3,4-dihydroquinazoline-7-carbonitrile], for which the Ki is less than 500 nM in experiment [1] and greater than 500 nM on Human μ-opioid receptor.
With `CCCC(c1nc2ccc(C#N)cc2c(=O)n1CC)N1C[C@@H](C)N[C@@H](C)C1` (stereo partly drawn) [Example 177, 2-(1-((3S,5R)-3,5-dimethylpiperazin-1-yl)butyl)-3-ethyl-4-oxo-3,4-dihydroquinazoline-6-carbonitrile], the Ki in experiment [1] is less than 500 nM; at Human μ-opioid receptor it was greater than 500 nM.
Consider `CCCC(c1nc2cc(C(=O)O)ccc2c(=O)n1C)N1C[C@@H](C)N[C@@H](C)C1` (stereo partly drawn) [Example 178, 2-(1-((3S,5R)-3,5-Dimethylpiperazin-1-yl)butyl)-3-methyl-4-oxo-3,4-dihydroquinazoline-7-carboxylic acid], for which the figures for the Ki (in experiment [1] (read-out: α2δ-1 binding); at Human μ-opioid receptor (read-out: μ-binding)) were 500 to 5000 nM and greater than 500 nM, respectively.
As for `CCCC(c1nc2cc(C(=O)O)ccc2c(=O)n1CC)N1C[C@@H](C)N[C@@H](C)C1` (stereo partly drawn) [Example 179, 2-(1-((3S,5R)-3,5-dimethylpiperazin-1-yl)butyl)-3-ethyl-4-oxo-3,4-dihydroquinazoline-7-carboxylic acid], the Ki is 500 to 5000 nM in experiment [1] (read-out: α2δ-1 binding) and greater than 500 nM at Human μ-opioid receptor (read-out: μ-binding).
Regarding `CCCC(c1nc2cc(C(=O)NCc3ccccc3)ccc2c(=O)n1CC)N1C[C@@H](C)N[C@@H](C)C1` (stereo partly drawn) [Example 180, N-Benzyl-2-(1-((3S,5R)-3,5-dimethylpiperazin-1-yl)butyl)-3-ethyl-4-oxo-3,4-dihydroquinazoline-7-carboxamide], the Ki in experiment [1] was less than 500 nM; at Human μ-opioid receptor, greater than 500 nM.
Take `CCCC(c1nc2ccc(CN(C)Cc3ccccc3)cc2c(=O)n1CC)N1C[C@@H](C)N[C@@H](C)C1` (stereo partly drawn) [Example 183, 6-((benzyl(methyl)amino)methyl)-2-(1-((3S,5R)-3,5-dimethylpiperazin-1-yl)butyl)-3-ethylquinazolin-4(3H)-one]: the Ki in experiment [1] was less than 500 nM; at Human μ-opioid receptor, greater than 500 nM.
